Ki data for 32 compounds are collected here from patent publication US20110082130A1 (LIGAND PHARMACEUTICALS, INC., priority 2006, published 2011).

Bounds are passed on as bounds.

T1 sequence (Q9Y5N1 with tags, fused parts or gaps): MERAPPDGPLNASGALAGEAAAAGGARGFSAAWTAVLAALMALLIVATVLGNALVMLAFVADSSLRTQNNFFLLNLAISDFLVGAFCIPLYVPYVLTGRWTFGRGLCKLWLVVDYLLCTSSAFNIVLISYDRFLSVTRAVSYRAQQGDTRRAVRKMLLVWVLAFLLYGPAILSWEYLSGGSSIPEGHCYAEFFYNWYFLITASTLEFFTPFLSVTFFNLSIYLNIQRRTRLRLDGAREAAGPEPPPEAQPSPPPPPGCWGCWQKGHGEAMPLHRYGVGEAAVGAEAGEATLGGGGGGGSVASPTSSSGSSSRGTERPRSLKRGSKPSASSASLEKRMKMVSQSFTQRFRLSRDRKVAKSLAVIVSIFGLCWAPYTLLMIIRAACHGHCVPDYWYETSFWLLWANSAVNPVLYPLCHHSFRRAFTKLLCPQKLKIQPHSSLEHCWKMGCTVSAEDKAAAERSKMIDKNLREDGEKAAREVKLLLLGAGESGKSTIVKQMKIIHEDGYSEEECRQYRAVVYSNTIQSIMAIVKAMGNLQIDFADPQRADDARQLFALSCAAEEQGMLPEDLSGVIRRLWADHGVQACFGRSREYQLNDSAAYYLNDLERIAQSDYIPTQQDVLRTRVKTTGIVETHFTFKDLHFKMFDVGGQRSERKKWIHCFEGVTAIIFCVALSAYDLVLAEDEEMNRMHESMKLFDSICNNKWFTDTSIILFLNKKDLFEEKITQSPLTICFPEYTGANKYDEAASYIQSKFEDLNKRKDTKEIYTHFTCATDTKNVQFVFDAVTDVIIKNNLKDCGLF

One assay has as its target T1, chimeric human H3 receptor (Homo sapiens, UniProt Q9Y5N1).
T1 construct: made in house; host or cells: Sf9 insect cells (baculovirus); P2 membrane preparation
As to the kind of experiment: Chimeric human H3 receptor GTP binding assay (agonist-stimulated GTP-gamma35S binding, Example 7). The assay is classed as biochemical. Conditions: Table I; P2 membranes of Sf9 cells, 1 μM histamine as agonist, Ki from IC50 by Cheng-Prusoff. In short, it runs like this: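 Sf9 membranes co-expressing chimeric human H3 receptor and heterotrimeric G-protein, 35 μg/tube, in pH 7.4 Tris buffer with 10 μM GDP. Test compounds (10^−10–10^−6 M) competed against 1 μM histamine, […] GTP-gamma35S, 60 min at room temperature. Filter-bound radioactivity counted; IC50 converted to Ki by Cheng-Prusoff. Agonism/inverse agonism tested without histamine (EC50).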
(Binding of GTPγS marks nucleotide exchange on a G protein.)
Regarding `O=C(CN1CCc2cc(-c3cncnc3)ccc2C1)N1CCN(C2CCC2)CC1` [Compound 70, 2-[2-(4-cyclobutylpiperazin-1-yl)-2-oxoethyl]-6-pyrimidin-5-yl-1,2,3,4-tetrahydrasoquinoline], the Ki (usually a measure of affinity in units of concentration, obtained from inhibition or displacement) is less than 1000 nM.

The assay is the same for the next values; noted with them: Table II "Ki", symbol *; assay of Example 7.
As for `COC[C@H]1CCCN1c1ccc2c(n1)CCN(CC(=O)N1CCN(C3CCC3)CC1)C2` [Compound 679, 6-[2-(4-cyclobutylpiperazin-1-yl)-2-oxoethyl]-2-[(2R)-2-(methoxymethyl)pyrrolidin-1-yl]-5,6,7,8-tetrahydro-1,6-naphthyridine], the Ki was less than 1000 nM. Turning to `CCOc1ccc(-c2ccc3c(c2)CCN(CC(=O)N2CCN(C4CCCC4)CC2)C3)cc1` [Compound 529, 2-[2-(4-cyclopentylpiperazin-1-yl)-2-oxoethyl]-6-(4-ethoxyphenyl)-1,2,3,4-tetrahydroisoquinoline], the Ki was less than 1000 nM. Still for that read-out and setting: to `CCC(COC)Nc1ccc2c(n1)CCN(CC(=O)N1CCN(C3CCC3)CC1)C2` (centres unmarked) [Compound 666, 6-[2-(4-cyclobutylpiperazin-1-yl)-2-oxoethyl]-N-[1-(methoxymethyl)propyl]-5,6,7,8-tetrahydro-1,6-naphthyridin-2-amine] belongs less than 1000 nM; to `C[C@@H]1CN(C(=O)CN2CCc3cc(-c4cncnc4)ccc3C2)CCN1C1CCCC1` [Compound 611, 2-{2-[(3R)-4-cyclopentyl-3-methylpiperazin-1-yl]-2-oxoethyl}-6-pyrimidin-5-yl-1,2,3,4-tetrahydroisoquinoline], less than 1000 nM. Still for that read-out and setting: to `O=C(CN1CCc2nc(NCC3CC3)ccc2C1)N1CCN(C2CCC2)CC1` [Compound 650, 6-[2-(4-cyclobutylpiperazin-1-yl)-2-oxoethyl]-N-(cyclopropylmethyl)-5,6,7,8-tetrahydro-1,6-naphthyridin-2-amine] belongs less than 1000 nM.

As to `O=C(CN1CCc2cc(-c3nccc4ccccc34)ccc2C1)N1CCN(C2CCC2)CC1` [Compound 637, 2′-[2-(4-cyclobutylpiperazin-1-yl)-2-oxoethyl]-1′,2′,3′,4′-tetrahydro-1,6′-biisoquinoline], the Ki is less than 1000 nM. Still for that read-out and setting: as for `COCCNc1ccc2c(n1)CCN(CC(=O)N1CCN(C3CCC3)CC1)C2` [Compound 663, 6-[2-(4-cyclobutylpiperazin-1-yl)-2-oxoethyl]-N-(2-methoxyethyl)-5,6,7,8-tetrahydro-1,6-naphthyridin-2-amine], the figure is less than 1000 nM. For `O=C(CN1CCc2cc(-c3ccc4ccccc4n3)ccc2C1)N1CCN(C2CCC2)CC1` [Compound 634, 2-{2-[2-(4-cyclobutylpiperazin-1-yl)-2-oxoethyl]-1,2,3,4-tetrahydroisoquinolin-6-yl}quinoline], the Ki was less than 1000 nM. On to `C[C@H]1CN(C(=O)CN2CCc3cc(-c4cncnc4)ccc3C2)CCN1C1C[C@H]2CC[C@@H]1C2` (stereo partly drawn) [Compound 624, 2-(2-{(3S)-4-[(1R,4S)-bicyclo[2.2.1]hept-2-yl]-3-methylpiperazin-1-yl}-2-oxoethyl)-6-pyrimidin-5-yl-1,2,3,4-tetrahydroisoquinoline], for which the Ki was less than 1000 nM.

On to `COc1cc(-c2ccc3c(c2)CCN(CC(=O)N2CCN(C4CCCC4)CC2)C3)cc(OC)c1OC` [Compound 517, 2-[2-(4-cyclopentylpiperazin-1-yl)-2-oxoethyl]-6-(3,4,5-trimethoxyphenyl)-1,2,3,4-tetrahydroisoquinoline], for which the Ki was less than 1000 nM. On the same count and under the same terms, as for `CCOc1cccc(-c2ccc3c(c2)CCN(CC(=O)N2CCN(C4CCCC4)CC2)C3)c1` [Compound 483, 2-[2-(4-cyclopentylpiperazin-1-yl)-2-oxoethyl]-6-(3-ethoxyphenyl)-1,2,3,4-tetrahydroisoquinoline], the figure is less than 1000 nM.

The assay is the same for the next values; noted with them: Table II; "*" = Ki in assay of Example 7 less than 1 micromolar.
Consider `CC1CCC[C@H]2CN(C(=O)CN3CCc4nc(N5CCOCC5)ncc4C3)CCN12` (some centres unmarked) [Compound 186, 6-[2-(6-methyloctahydro-2H-pyrido[1,2-a]pyrazin-2-yl)-2-oxoethyl]-2-morpholin-4-yl-5,6,7,8-tetrahydropyrido[4,3-d]pyrimidine], for which the inhibition constant Ki was less than 1000 nM.

As for `CC(C)Oc1ccc2c(c1)CCN(CC(=O)N1CCN(C3CCC3)CC1)C2` [Compound 197, 2-[2-(4-cyclobutylpiperazin-1-yl)-2-oxoethyl]-6-isopropoxy-1,2,3,4-tetrahydroisoquinoline], the Ki is less than 1000 nM.

Turning to `Cc1ccc(-c2ccc3c(c2)CCN(CC(=O)N2CCN(C4CCC4)CC2)C3)nn1` [Compound 166, 2-[2-(4-cyclobutylpiperazin-1-yl)-2-oxoethyl]-6-(6-methylpyridazin-3-yl)-1,2,3,4-tetrahydroisoquinoline], the Ki was less than 1000 nM. Same read-out and setting: as for `O=C(CN1CCc2nc(N3CCC(F)(F)C3)ccc2C1)N1CCN(C2CCC2)CC1` [Compound 242, 6-[2-(4-cyclobutylpiperazin-1-yl)-2-oxoethyl]-2-(3,3-difluoropyrrolidin-1-yl)-5,6,7,8-tetrahydro-1,6-naphthyridine], the figure is less than 1000 nM; as for `O=C(CN1CCc2nc(N3CCCCC3)ccc2C1)N1CCN(C2CCC2)CC1` [Compound 222, 6-[2-(4-cyclobutylpiperazin-1-yl)-2-oxoethyl]-2-piperidin-1-yl-5,6,7,8-tetrahydro-1,6-naphthyridine], less than 1000 nM. With `O=C(CN1CCc2cc(N3CCCCC3=O)ccc2C1)N1CCN(C2CCC2)CC1` [Compound 211, 1-{2-[2-(4-cyclobutylpiperazin-1-yl)-2-oxoethyl]-1,2,3,4-tetrahydroisoquinolin-6-yl}piperidin-2-one], the Ki is less than 1000 nM. `Cn1c(-c2ccc3c(c2)CCN(CC(=O)N2CCN(C4CCC4)CC2)C3)cccc1=O` [Compound 278, 6-{2-[2-(4-cyclobutylpiperazin-1-yl)-2-oxoethyl]-1,2,3,4-tetrahydroisoquinolin-6-yl}-1-methylpyridin-2(1H)-one]: the Ki is less than 1000 nM. The same measure, in the same setting: as for `O=C(CN1CCc2cc(-n3ccnn3)ccc2C1)N1CCN(C2CCC2)CC1` [Compound 208, 2-[2-(4-cyclobutylpiperazin-1-yl)-2-oxoethyl]-6-(1H-1,2,3-triazol-1-yl)-1,2,3,4-tetrahydroisoquinoline], the figure is less than 1000 nM.

As for `O=C(CN1CCc2cc(-n3nccn3)ccc2C1)N1CCN(C2CCC2)CC1` [Compound 209, 2-[2-(4-cyclobutylpiperazin-1-yl)-2-oxoethyl]-6-(2H-1,2,3-triazol-2-yl)-1,2,3,4-tetrahydroisoquinoline], the Ki was less than 1000 nM.

With `Cc1ccc(-n2cc3c(n2)CCN(CC(=O)N2CCN(C4CCC4)CC2)C3)nc1` [Compound 261, 5-[2-(4-cyclobutylpiperazin-1-yl)-2-oxoethyl]-2-(5-methylpyridin-2-yl)-4,5,6,7-tetrahydro-2H-pyrazolo[4,3-c]pyridine], the Ki is less than 1000 nM. Turning to `CS(=O)(=O)c1cccc(-c2ccc3c(c2)CCN(CC(=O)N2CCN(C4CCC4)CC2)C3)c1` [Compound 84, 2-[2-(4-cyclobutylpiperazin-1-yl)-2-oxoethyl]-6-[3-(methylsulfonyl)phenyl]-1,2,3,4-tetrahydroisoquinoline], the Ki was less than 1000 nM. Same read-out and setting: to `Cc1ccc(-n2cc3c(n2)CCN(CC(=O)N2CCN(C4CCC4)CC2)C3)nn1` [Compound 200, 5-[2-(4-cyclobutylpiperazin-1-yl)-2-oxoethyl]-2-(6-methylpyridazin-3-yl)-4,5,6,7-tetrahydro-2H-pyrazolo[4,3-c]pyridine] belongs less than 1000 nM.

Staying with this assay, now noted: assay of Example 7; "*" in Ki of Table II.
On to `Cc1ccc(-n2ncc3c2CCN(CC(=O)N2CCN(C4CCC4)CC2)C3)nn1` [Compound 288, 5-[2-(4-cyclobutylpiperazin-1-yl)-2-oxoethyl]-1-(6-methylpyridazin-3-yl)-4,5,6,7-tetrahydro-1H-pyrazolo[4,3-c]pyridine], for which the Ki was less than 1000 nM. Same read-out and setting: to `COc1ccc(-c2ccc(-c3nc4c(s3)CN(CC(=O)N3CCN(C5CCC5)CC3)CC4)cc2)cc1` [Compound 321, 5-[2-(4-cyclobutylpiperazin-1-yl)-2-oxoethyl]-2-(4′-methoxybiphenyl-4-yl)-4,5,6,7-tetrahydro[1,3]thiazolo [5,4-c]pyridine] belongs less than 1000 nM; to `COCc1ncc2c(n1)CCN(CC(=O)N1CCN(C3CCC3)CC1)C2` [Compound 286, 6-[2-(4-cyclobutylpiperazin-1-yl)-2-oxoethyl]-2-(methoxymethyl)-5,6,7,8-tetrahydropyrido[4,3-d]pyrimidine], less than 1000 nM; to `O=C(CN1CCc2nc(-c3cc(C(F)(F)F)ccc3Cl)sc2C1)N1CCN(C2CCC2)CC1` [Compound 374, 2-[2-chloro-5-(trifluoromethyl)phenyl]-5-[2-(4-cyclobutylpiperazin-1-yl)-2-oxoethyl]-4,5,6,7-tetrahydro[1,3]thiazolo [5,4-c]pyridine], less than 1000 nM. Still for that read-out and setting: to `O=C(CN1CCc2nc(-c3ccc(OC(F)(F)F)cc3)sc2C1)N1CCN(C2CCC2)CC1` [Compound 316, 5-[2-(4-cyclobutylpiperazin-1-yl)-2-oxoethyl]-2-[4-(trifluoromethoxy)phenyl]-4,5,6,7-tetrahydro[1,3]thiazolo [5,4-c]pyridine] belongs less than 1000 nM; to `CSc1cccc(-c2nc3c(s2)CN(CC(=O)N2CCN(C4CCC4)CC2)CC3)c1` [Compound 320, 5-[2-(4-cyclobutylpiperazin-1-yl)-2-oxoethyl]-2-[3-(methylthio)phenyl]-4,5,6,7-tetrahydro[1,3]thiazolo [5,4-c]pyridine], less than 1000 nM; to `Cc1ccc(-c2nc3c(s2)CN(CC(=O)N2CCN(C4CCC4)CC2)CC3)cc1` [Compound 305, 5-[2-(4-cyclobutylpiperazin-1-yl)-2-oxoethyl]-2-(4-methylphenyl)-4,5,6,7-tetrahydro[1,3]thiazolo [5,4-c]pyridine], less than 1000 nM.

Regarding `Cc1cnc(-n2cc3c(n2)CCN(CC(=O)N2CCN(C4CCC4)CC2)C3)nc1` [Compound 289, 5-[2-(4-cyclobutylpiperazin-1-yl)-2-oxoethyl]-2-(5-methylpyrimidin-2-yl)-4,5,6,7-tetrahydro-2H-pyrazolo[4,3-c]pyridine], the Ki is less than 1000 nM.
